Results on one compound are retold here after patent US20230026577A1, “Ophthalmic Pharmaceutical Compositions” (Vanda Pharmaceuticals Inc., priority 2019, published 2023).

As a reminder, the solubility is the concentration that dissolves in the medium under given conditions.

Data set [1] in a line: Solubility of the compound of Formula I in various materials (HPLC with UV detector). Format: physicochemical. How it is done:
The solubility of the compound of Formula I in various materials is determined.

Data set [2] in a line: Forced degradation studies of the compound of Formula I. Format: physicochemical. From the text: The formation of the compound of Formula II is slowed and/or eliminated by inclusion of an "antioxidant system," as described herein, in the novel ophthalmic solution compositions described herein.

With `CNc1nc(Nc2ccccc2)nc(OCC(F)(F)C(F)F)n1` [Formula I, N^2-methyl-N^4-phenyl-6-(2,2,3,3-tetrafluoropropoxy)-1,3,5-triazine-2,4-diamine], the solubility in data set [1] (0.2% poloxamer in water, aqueous with cosolvent or surfactant or cyclodextrin) turned out to be 10 µg/mL; in data set [1] (0.5% polyoxyl 40 hydrogenated castor oil in water, aqueous with cosolvent or surfactant or cyclodextrin), 70 µg/mL; in data set [1] (1% polysorbate-80 in water, aqueous with cosolvent or surfactant or cyclodextrin), 100 µg/mL; in data set [1] (1.4% polyvinyl alcohol in water, aqueous with cosolvent or surfactant or cyclodextrin, 1.4% Poly Vinyl Alcohol in water) it was 10 µg/mL; in data set [1] (5% polyoxyl 35 castor oil in water, aqueous with cosolvent or surfactant or cyclodextrin), 480 µg/mL; in data set [1] (7% polyoxyl 40 stearate in water, aqueous with cosolvent or surfactant or cyclodextrin) it was 620 µg/mL. For the same compound, the solubility in data set [1] (castor oil, oil or lipid) was 1090 µg/mL; in data set [1] (glycerine, organic solvent or mixture) it was 100 µg/mL; in data set [1] (mineral oil, oil or lipid) it was 40 µg/mL; in data set [1] (polyethylene glycol 400 (PEG-400), organic solvent or mixture), 14500 µg/mL; in data set [1] (propylene glycol (PG), organic solvent or mixture) it was 4960 µg/mL; in data set [1] (purified water, water), less than 10 µg/mL. Besides, in data set [2], the “Formation of the compound of Formula II” value is “not formed”.
